Laboratory results taken from ChEMBL document CHEMBL6071176, “Development of Phloroglucinol-Linked Tris-Quaternary Ammonium Salt Antimicrobial Peptide Mimics with Low Cytotoxicity and Broad-Spectrum Antibacterial Activity” (J Med Chem, 2024).
Activity calls are given as the source filed them. The rule behind the calls is not given here.

Key:
[1] = Hemolytic activity in Red blood cells (unknown origin) assessed as hemolytic rate at 1280 ug/ml relative to control; assay type: toxicity, cell-based, Erythrocyte; conditions: at 1280 µg/mL, read-out: Activity
[2] = test system: Staphylococcus aureus; experiment: In vivo antibacterial activity against methicillin-resistant Staphylococcus aureus subcutaneously infected in SPF female Kunming mouse model assessed as bacteria count in dissected mouse at 10 mg/kg/day injected into blister after 6 hrs of infection measured after 6 consecutive treatments; assay type: functional, organism-based
[3] = test system: Staphylococcus aureus; experiment: Anti-microbial activity against Staphylococcus aureus assessed as bacterial growth inhibition in presence of PE (exogenous bacterial cell membrane component) measured after 18 hrs; assay type: functional, organism-based
[4] = Toxicity in female SPF Kunming mouse assessed as change in UREA level at 20 mg/kg/day, ip measured after 24 hrs; assay type: organism-based; conditions: in vivo
[5] = test system: Staphylococcus aureus; experiment: Anti-biofilim activity against Staphylococcus aureus biofilm assessed bio-film thickness at 32 ug/ml measured after 24 hrs incubation by SYTO 9 staining based […] laser scanning microscopy (CLSM) (reference value: 29.5 microm); assay type: functional; conditions: dose 32 µg/ml
[6] = test system: Staphylococcus aureus; experiment: Bactericidal activity against late exponential phase Staphylococcus aureus assessed as bacterial elimination at 8 ug/ml incubated for 6 to 8 hrs by time-kill assay; assay type: functional; conditions: dose 8 µg/ml; time 6-8 hrs
[7] = test system: Escherichia coli; experiment: Bactericidal activity against late exponential phase Escherichia coli assessed as bacterial elimination at 8 ug/ml incubated for 6 to 8 hrs by time-kill assay; assay type: functional; conditions: dose 8 µg/ml; time 6-8 hrs
[8] = Toxicity in female SPF Kunming mouse assessed as change in CREA level at 20 mg/kg/day, ip measured after 24 hrs; assay type: organism-based; conditions: in vivo
[9] = test system: Cell membrane; experiment: Induction of membrane damage in Staphylococcus aureus assessed as nucleic acid leakage measured at 0.5 to 2 times of MIC by microplate spectrophotometry; assay type: subcellular; conditions: TDE = time-dependent effect
[10] = test system: Staphylococcus aureus; experiment: Induction of ROS level in Staphylococcus aureus assessed as increase in intracellular ROS level by measuring fold increase in fluorescent intensity at 0.5 ug/ml measured after 4.5 hrs by ROS-sensitive fluorescent probe DCF-DA staining based assay; assay type: functional; conditions: dose 0.5 µg/ml
[11] = test system: Stenotrophomonas maltophilia; experiment: Antimicrobial activity against Stenotrophomonas maltophilia assessed as inhibition of growth incubated for 18 hrs by CLSI guidelines based assay; assay type: functional
[12] = test system: Enterococcus faecalis; experiment: Antimicrobial activity against Enterococcus faecalis assessed as inhibition of growth incubated for 18 hrs by CLSI guidelines based assay; assay type: functional
[13] = Toxicity in female SPF Kunming mouse assessed as pathological changes in heart at 200 mg/kg/day, sc measured after 24 hrs by hematoxylin and eosin staining based assay; assay type: organism-based; conditions: in vivo
[14] = test system: Staphylococcus aureus; experiment: Anti-biofilim activity against Staphylococcus aureus biofilm assessed bacterial survival rate at 32 ug/ml measured after 24 hrs incubation; assay type: functional
[15] = Toxicity in female SPF Kunming mouse assessed as survival rate at 200 mg/kg/day, sc measured after 24 hrs; assay type: organism-based; conditions: in vivo
[16] = Toxicity in female SPF Kunming mouse assessed as pathological changes in kidney at 200 mg/kg/day, sc measured after 24 hrs by hematoxylin and eosin staining based assay; assay type: organism-based; conditions: in vivo
[17] = Toxicity in female SPF Kunming mouse assessed as change in MCV count at 20 mg/kg/day, ip measured after 24 hrs; assay type: organism-based; conditions: in vivo
[18] = test system: Staphylococcus aureus; experiment: Bactericidal activity against Staphylococcus aureus assessed as bacterial killing in presence of 50% plasma; assay type: functional, organism-based
[19] = test system: Staphylococcus aureus; experiment: Anti-biofilim activity against Staphylococcus aureus biofilm assessed bacterial survival rate at 4 ug/ml measured after 24 hrs incubation; assay type: functional
[20] = test system: Staphylococcus aureus; experiment: Antibacterial activity against methicillin-resistant Staphylococcus aureus assessed as inhibition of bacterial growth measured immediately after addition in presence of plasma; assay type: functional, organism-based
[21] = test system: Staphylococcus aureus; experiment: Anti-biofilim activity against Staphylococcus aureus biofilm assessed bacterial survival rate at 8 ug/ml measured after 24 hrs incubation; assay type: functional

CCCCCCCC[N+](C)(C)CCCCOc1cc(OCCCC[N+](C)(C)CCCCCCCC)cc(OCCCC[N+](C)(C)CCCCCCCC)c1.[Br-].[Br-].[Br-]
hemolysis at 1280 ug/ml [1]: < 5% | Activity [2]: Active | Activity [3]: Active | Activity [4]: Non-Toxic | Activity [5]: 14.7 um | Activity [6]: 100% | Activity [7]: 100% | Activity [8]: Non-Toxic | Activity [9]: Tde | fold change (FC) [10]: 3 | MIC [11]: 2 µg/mL | MIC [12]: 1 µg/mL | Activity [13]: Non-Toxic | survival at 32 µg/mL [14]: 0.002% | survival at 24 h [15]: 100% | Activity [16]: Non-Toxic | Activity [17]: Non-Toxic | Activity [18]: Active | survival at 4 µg/mL [19]: 2.3% | Activity [20]: Active | survival at 8 µg/mL [21]: 0.61%
